The source of these data is BindingDB's records for doi:10.1016/S0960-894X(03)00095-7 (Abbott Laboratories, 2003).

Experiment [1] has as its target Geranylgeranyl transferase type-1 subunit beta/Protein farnesyltransferase/geranylgeranyltransferase type-1 subunit alpha (Bos taurus, UniProt P29702+Q5EAD5). Put plainly: GGTase-I Activity Assay. Conditions: pH 7.5; 37 °C. How it is done: The in vitro activity of compounds inhibiting GGTase-1 was determined by measuring the transfer of [3H]-geranylgeranylpyrophosphate to substrate Ha-Ras-CVLL. The incorporated radioactivity was quantified by scintillation counting.

Experiment [2] concerns the target Protein farnesyltransferase subunit beta/geranylgeranyltransferase type-1 subunit alpha (Bos taurus, UniProt P29702+P49355). In words: FTase Activity Assay. Particulars: pH 7.5; 37 °C. Here is the method:
The in vitro activity of compounds inhibiting FTase was determined by measuring the transfer of [3H]-FPP to substrate Ha-Ras-CVLS. The incorporated radioactivity was quantified by scintillation counting.

As a reminder, the IC50 is the midpoint of a concentration-inhibition curve. Higher therefore signals lower potency. For the compound `CN(Cc1ccc(C#N)cc1)[C@H](Cc1cncn1C)C(=O)N1CCC(C#N)=C(c2cccc3ccccc23)C1` [1-[(2R)-2-{[(4-cyanophenyl)methyl](methyl)amino}-3-(1-methyl-1H-imidazol-5-yl)propanoyl]-5-(naphthalen-1-yl)-1,2,3,6-tetrahydropyridine-4-carbonitrile], the IC50 worked out at 1.6 µM in experiment [1] and 0.00092 µM in experiment [2].
